pIC50: −log10 of the molar value.

The first assay can be described thus: Inhibition of Mycobacterium tuberculosis glutamine synthetase.
Settings: not given
Consider `Oc1ccc(-c2nc3ccc(Br)cn3c2NC2CCCC2)cc1`, for which the IC50 result was “ND(Insoluble)”.

The assay is the same for the next values; noted with them: read-out: IC50.
By pIC50 is commonly meant the negative decadic logarithm of the IC50, by convention in mol/L. As for `COc1cccc(-c2nc3ccc(Br)cn3c2NC2CCCC2)c1`, the pIC50 was less than 4.30.

In the case of `COc1ccc(-c2nc3ccc(-c4ccncc4)cn3c2NC2CCCC2)cc1O`, the pIC50 was less than 4.30.

In the case of `COc1ccc(-c2nc3ccc(Oc4ccccc4)cn3c2NC2CCCC2)cc1O`, the pIC50 is less than 4.30.

For the molecule `COc1ccc(-c2nc3ccc(/C=C/c4ccccc4)cn3c2NC2CCCC2)cc1O`, the pIC50 was less than 4.30.

`COc1ccc2nc(-c3ccc(OC)c(O)c3)c(NC3CCCC3)n2c1`: the pIC50 is 4.50.

Turning to `COc1ccc(-c2nc3ccc(I)cn3c2NC2CCCC2)cc1O`, the pIC50 is 5.32.

As to `COc1cc(-c2nc3ccc(Br)cn3c2NC2CCCC2)ccc1O`, the pIC50 is less than 4.30.

In the case of `COc1ccc(-c2nc3ccc(Cl)cn3c2NC2CCCC2)cc1O`, the pIC50 is 4.95.

In the case of `COc1ccc(-c2nc3ccc(C)cn3c2NC2CCCC2)cc1O`, the pIC50 was less than 4.30.

For the molecule `COc1ccc(-c2nc3c(C)cc(Br)cn3c2NC2CCCC2)cc1O`, the pIC50 is 4.90.

In the case of `COc1ccc(-c2nc3cccc(Br)n3c2NC2CCCC2)cc1O`, the pIC50 is less than 4.30.

For `Nc1cccc(-c2nc3ccc(Br)cn3c2NC2CCCC2)c1`, the pIC50 is 5.00.

For `COc1ccc(-c2nc3ccc(Br)cn3c2NC2CCCC2)cc1O`, the pIC50 is 5.06.

With `COc1ccc(-c2nc3c(Br)cccn3c2NC2CCCC2)cc1O`, the pIC50 is 4.67.

As for `COc1ccc(-c2nc3ccc(-c4ccccc4)cn3c2NC2CCCC2)cc1O`, the pIC50 was less than 4.30.

Consider `COc1cccc(-c2nc3ccc(Br)cn3c2NC2CCCC2)c1OC`, for which the pIC50 was less than 4.30.

In the case of `Oc1ccccc1-c1nc2ccc(Br)cn2c1NC1CCCC1`, the pIC50 is less than 4.30.

On to `COc1ccc(-c2nc3c(Br)cc(Br)cn3c2NC2CCCC2)cc1O`, for which the pIC50 was less than 4.30.

Take `Brc1ccc2ncc(NC3CCCC3)n2c1`: the pIC50 is less than 4.30.

Turning to `Oc1cccc(-c2nc3ccc(Br)cn3c2NC2CCCC2)c1Cl`, the pIC50 is less than 4.30.

Consider `COc1ccc(-c2nc3ccc(CCc4ccccc4)cn3c2NC2CCCC2)cc1O`, for which the pIC50 was less than 4.30.

`O=C(O)c1cccc(-c2nc3ccc(Br)cn3c2NC2CCCC2)c1`: the pIC50 is 6.42.

Consider `COc1ccc(-c2nc3ccccn3c2NC2CCCC2)cc1O`, for which the pIC50 was less than 4.30.

As for `OCc1cccc(-c2nc3ccc(Br)cn3c2NC2CCCC2)c1`, the pIC50 was 4.88.

As to `Oc1cccc(-c2nc3ccc(Br)cn3c2NC2CCCC2)c1`, the negative-log IC50 (pIC50) is less than 4.30.

In the case of `COc1ccc(-c2nc3ccc(Cc4ccccc4)cn3c2NC2CCCC2)cc1O`, the pIC50 is less than 4.30.

On to `O=[N+]([O-])c1cccc(-c2nc3ccc(Br)cn3c2NC2CCCC2)c1`, for which the pIC50 is less than 4.30.

As to `COc1ccc(-c2nc3ccc(C(F)(F)F)cn3c2NC2CCCC2)cc1O`, the pIC50 was less than 4.30.

Regarding `O=[N+]([O-])c1ccc(-c2nc3ccc(Br)cn3c2NC2CCCC2)cc1O`, the pIC50 was less than 4.30.

Regarding `Brc1ccc2nc(-c3ccccc3)c(NC3CCCC3)n2c1`, the pIC50 was less than 4.30.

In the case of `COc1ccc(-c2nc3ccc(F)cn3c2NC2CCCC2)cc1O`, the pIC50 is less than 4.30.

As to `COc1ccc(-c2nc3ccc(C#N)cn3c2NC2CCCC2)cc1O`, the pIC50 is less than 4.30.
